Measurements from US9149038B2, “4-amino-6-(heterocyclic)picolinates and 6-amino-2-(heterocyclic)pyrimidine-4-carboxylates and their use as herbicides” (Dow AgroSciences LLC, priority 2013, dated 2015).
Where two headings read alike, the source gives them in different places.

System: Wheat and Barley and weed species
Assay: Post-Emergent Test III: postemergent herbicidal activity in wheat and barley, visual rating after 21 d and probit GR20/GR50/GR80/GR90 (Tables 9-13)
Assay type: in vivo
Settings: for pest or weed control at 17.5 g/ha / pest or weed control at 35 g/ha / pest or weed control at 70 g/ha: post-emergence, 504 h
Outline: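 Greenhouse plants (~18/17 °C, 14 h photoperiod) at second–third true leaf stage sprayed at 187 L/ha with a high rate and ½× to 1/16× serial dilutions. Visual injury 0–100% versus solvent-blank controls scored at 21 d; GR20, GR50, GR80 and GR90 derived by probit analysis across rates.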

Compound: COC(=O)c1nc(-c2ccc(Br)c3c2OC(F)(F)O3)c(F)c(N)c1Cl [Compound 78, Methyl 4-amino-6-(7-bromo-2,2-difluorobenzo[d][1,3]dioxol-4-yl)-3-chloro-5-fluoropicolinate]
- Visual Growth Reduction (%) 21 Days After Application CIRAR (CIRAR Canada thistle (Cirsium arvense), 17.5 g ai/ha): B (85-94)
- Visual Growth Reduction (%) 21 Days After Application CIRAR (CIRAR Canada thistle (Cirsium arvense), 35 g ai/ha): B (85-94)
- Visual Growth Reduction (%) 21 Days After Application CIRAR (CIRAR Canada thistle (Cirsium arvense), 70 g ai/ha): B (85-94)
- GR50 CIRAR (CIRAR Canada thistle (Cirsium arvense), growth reduction of 50%, probit analysis): 2 g ai/ha
- GR80 CIRAR (CIRAR Canada thistle (Cirsium arvense), growth reduction of 80%, probit analysis): 7 g ai/ha
- GR90 CIRAR (CIRAR Canada thistle (Cirsium arvense), growth reduction of 90%, probit analysis): 12 g ai/ha
- Visual Growth Reduction (%) 21 Days After Application GALAP (GALAP cleavers (Galium aparine), 17.5 g ai/ha): D (60-74)
- Visual Growth Reduction (%) 21 Days After Application GALAP (GALAP cleavers (Galium aparine), 35 g ai/ha): D (60-74)
- Visual Growth Reduction (%) 21 Days After Application GALAP (GALAP cleavers (Galium aparine), 70 g ai/ha): D (60-74)
- GR50 GALAP (GALAP cleavers (Galium aparine), growth reduction of 50%, probit analysis): 1 g ai/ha
- GR80 GALAP (GALAP cleavers (Galium aparine), growth reduction of 80%, probit analysis): >140 g ai/ha
- GR90 GALAP (GALAP cleavers (Galium aparine), growth reduction of 90%, probit analysis): >140 g ai/ha
- GR20 HORVS (HORVS barley, spring (crop), growth reduction of 20%, probit analysis): 13 g ai/ha
- pest or weed control at 17.5 g/ha (Hordeum vulgare, HORVS barley, spring (crop), 17.5 g ai/ha, read-out: Visual Growth Reduction (%) 21 Days After Application HORVS): 30 to 44%
- pest or weed control at 35 g/ha (Hordeum vulgare, HORVS barley, spring (crop), 35 g ai/ha, read-out: Visual Growth Reduction (%) 21 Days After Application HORVS): 45 to 59%
- pest or weed control at 70 g/ha (Hordeum vulgare, HORVS barley, spring (crop), 70 g ai/ha, read-out: Visual Growth Reduction (%) 21 Days After Application HORVS): 60 to 74%
- Visual Growth Reduction (%) 21 Days After Application KCHSC (KCHSC kochia (Kochia scoparia), 17.5 g ai/ha): B (85-94)
- Visual Growth Reduction (%) 21 Days After Application KCHSC (KCHSC kochia (Kochia scoparia), 35 g ai/ha): A (95-100)
- Visual Growth Reduction (%) 21 Days After Application KCHSC (KCHSC kochia (Kochia scoparia), 70 g ai/ha): A (95-100)
- GR50 KCHSC (KCHSC kochia (Kochia scoparia), growth reduction of 50%, probit analysis): 2 g ai/ha
- GR80 KCHSC (KCHSC kochia (Kochia scoparia), growth reduction of 80%, probit analysis): 9 g ai/ha
- GR90 KCHSC (KCHSC kochia (Kochia scoparia), growth reduction of 90%, probit analysis): 19 g ai/ha
- Visual Growth Reduction (%) 21 Days After Application LAMPU (LAMPU purple deadnettle (Lamium purpureum), 17.5 g ai/ha): D (60-74)
- Visual Growth Reduction (%) 21 Days After Application LAMPU (LAMPU purple deadnettle (Lamium purpureum), 35 g ai/ha): C (75-84)
- Visual Growth Reduction (%) 21 Days After Application LAMPU (LAMPU purple deadnettle (Lamium purpureum), 70 g ai/ha): B (85-94)
- GR50 LAMPU (LAMPU purple deadnettle (Lamium purpureum), growth reduction of 50%, probit analysis): 2 g ai/ha
- GR80 LAMPU (LAMPU purple deadnettle (Lamium purpureum), growth reduction of 80%, probit analysis): 46 g ai/ha
- GR90 LAMPU (LAMPU purple deadnettle (Lamium purpureum), growth reduction of 90%, probit analysis): >140 g ai/ha
- Visual Growth Reduction (%) 21 Days After Application MATCH (MATCH wild chamomile (Matricaria recutita L.), 17.5 g ai/ha): G (0-29)
- Visual Growth Reduction (%) 21 Days After Application MATCH (MATCH wild chamomile (Matricaria recutita L.), 35 g ai/ha): F (30-44)
- Visual Growth Reduction (%) 21 Days After Application MATCH (MATCH wild chamomile (Matricaria recutita L.), 70 g ai/ha): E (45-59)
- GR50 MATCH (MATCH wild chamomile (Matricaria recutita L.), growth reduction of 50%, probit analysis): 63 g ai/ha
- GR80 MATCH (MATCH wild chamomile (Matricaria recutita L.), growth reduction of 80%, probit analysis): >140 g ai/ha
- GR90 MATCH (MATCH wild chamomile (Matricaria recutita L.), growth reduction of 90%, probit analysis): >140 g ai/ha
- Visual Growth Reduction (%) 21 Days After Application PAPRH (PAPRH common poppy (Papaver rhoeas), 17.5 g ai/ha): F (30-44)
- Visual Growth Reduction (%) 21 Days After Application PAPRH (PAPRH common poppy (Papaver rhoeas), 35 g ai/ha): D (60-74)
- Visual Growth Reduction (%) 21 Days After Application PAPRH (PAPRH common poppy (Papaver rhoeas), 70 g ai/ha): C (75-84)
- GR50 PAPRH (PAPRH common poppy (Papaver rhoeas), growth reduction of 50%, probit analysis): 44 g ai/ha
- GR80 PAPRH (PAPRH common poppy (Papaver rhoeas), growth reduction of 80%, probit analysis): >140 g ai/ha
- GR90 PAPRH (PAPRH common poppy (Papaver rhoeas), growth reduction of 90%, probit analysis): >140 g ai/ha
- Visual Growth Reduction (%) 21 Days After Application SASKR (SASKR Russian thistle (Salsola iberica), 17.5 g ai/ha): B (85-94)
- GR50 SASKR (SASKR Russian thistle (Salsola iberica), growth reduction of 50%, probit analysis): 0.4 g ai/ha
- GR80 SASKR (SASKR Russian thistle (Salsola iberica), growth reduction of 80%, probit analysis): 9 g ai/ha
- GR90 SASKR (SASKR Russian thistle (Salsola iberica), growth reduction of 90%, probit analysis): 42 g ai/ha
- Visual Growth Reduction (%) 21 Days After Application SINAR (SINAR wild mustard (Sinapis arvensis), 17.5 g ai/ha): A (95-100)
- Visual Growth Reduction (%) 21 Days After Application SINAR (SINAR wild mustard (Sinapis arvensis), 35 g ai/ha): A (95-100)
- Visual Growth Reduction (%) 21 Days After Application SINAR (SINAR wild mustard (Sinapis arvensis), 70 g ai/ha): A (95-100)
- GR50 SINAR (SINAR wild mustard (Sinapis arvensis), growth reduction of 50%, probit analysis): 1 g ai/ha
- GR80 SINAR (SINAR wild mustard (Sinapis arvensis), growth reduction of 80%, probit analysis): 3 g ai/ha
- GR90 SINAR (SINAR wild mustard (Sinapis arvensis), growth reduction of 90%, probit analysis): 8 g ai/ha
- GR20 TRZAS (TRZAS wheat, spring (crop), growth reduction of 20%, probit analysis): 20 g ai/ha
- pest or weed control at 17.5 g/ha (Triticum aestivum, TRZAS wheat, spring (crop), 17.5 g ai/ha, read-out: Visual Growth Reduction (%) 21 Days After Application TRZAS): 0 to 29%
- pest or weed control at 35 g/ha (Triticum aestivum, TRZAS wheat, spring (crop), 35 g ai/ha, read-out: Visual Growth Reduction (%) 21 Days After Application TRZAS): 30 to 44%
- pest or weed control at 70 g/ha (Triticum aestivum, TRZAS wheat, spring (crop), 70 g ai/ha, read-out: Visual Growth Reduction (%) 21 Days After Application TRZAS): 45 to 59%
- Visual Growth Reduction (%) 21 Days After Application VERPE (VERPE bird's-eye speedwell (veronica persica), 17.5 g ai/ha): G (0-29)
- Visual Growth Reduction (%) 21 Days After Application VERPE (VERPE bird's-eye speedwell (veronica persica), 35 g ai/ha): D (60-74)
- Visual Growth Reduction (%) 21 Days After Application VERPE (VERPE bird's-eye speedwell (veronica persica), 70 g ai/ha): C (75-84)
- GR50 VERPE (VERPE bird's-eye speedwell (veronica persica), growth reduction of 50%, probit analysis): 33 g ai/ha
- GR80 VERPE (VERPE bird's-eye speedwell (veronica persica), growth reduction of 80%, probit analysis): 77 g ai/ha
- GR90 VERPE (VERPE bird's-eye speedwell (veronica persica), growth reduction of 90%, probit analysis): 119 g ai/ha
- Visual Growth Reduction (%) 21 Days After Application VIOTR (VIOTR wild pansy (Viola tricolor), 17.5 g ai/ha): F (30-44)
- Visual Growth Reduction (%) 21 Days After Application VIOTR (VIOTR wild pansy (Viola tricolor), 35 g ai/ha): F (30-44)
- Visual Growth Reduction (%) 21 Days After Application VIOTR (VIOTR wild pansy (Viola tricolor), 70 g ai/ha): D (60-74)
- GR50 VIOTR (VIOTR wild pansy (Viola tricolor), growth reduction of 50%, probit analysis): 47 g ai/ha
- GR80 VIOTR (VIOTR wild pansy (Viola tricolor), growth reduction of 80%, probit analysis): >140 g ai/ha
- GR90 VIOTR (VIOTR wild pansy (Viola tricolor), growth reduction of 90%, probit analysis): >140 g ai/ha
